System: MRC-9 cells
Test: Multiplex high-content viability assessment
Type: cell-based
Details: for Cell count normalized to cells treated with DMSO control / Cell count per well / Population Fragmented Nuclei (%) / Population Healthy Nuclei (%) / Population Pyknosed Nuclei (%) / Population apoptotic cell (%) / Population cell that influence microtubule strucutre (%) / Population with increased mitochondrial mass (%) / Population with membrane disruption (%): human fibroblast
Summary of the method: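 HEK293T and U2OS cells (DMEM) and MRC-9 fibroblasts (EMEM) exposed to compounds at 1 and 10 μM. Live-cell confocal imaging of cell shape and fluorescence before and at 12, 24 and 48 h. Normalized to 0.1% DMSO; biological duplicates with SEM.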

SMILES: CN1C(=O)[C@@H](N2CCc3c(C(N)=O)nn(Cc4ccccc4)c3C2=O)COc2ccccc21 [Compound 11]
- Cell count normalized to cells treated with DMSO control (1 µM, 0 h, replicate 1): 1.108
- Cell count per well (1 µM, 0 h, replicate 1): 166
- Population Fragmented Nuclei (%) (1 µM, 0 h, replicate 1): 16.15%
- Population Healthy Nuclei (%) (1 µM, 0 h, replicate 1): 68.94%
- Population Pyknosed Nuclei (%) (1 µM, 0 h, replicate 1): 14.91%
- Population apoptotic cell (%) (1 µM, 0 h, replicate 1): 29.17%
- Population cell that influence microtubule strucutre (%) (1 µM, 0 h, replicate 1): 21.62%
- Population with increased mitochondrial mass (%) (1 µM, 0 h, replicate 1): 7.21%
- Population with membrane disruption (%) (1 µM, 0 h, replicate 1): 0.00%
- Cell count normalized to cells treated with DMSO control (1 µM, 0 h, replicate 2): 0.9027
- Cell count per well (1 µM, 0 h, replicate 2): 161
- Population Fragmented Nuclei (%) (1 µM, 0 h, replicate 2): 20.65%
- Population Healthy Nuclei (%) (1 µM, 0 h, replicate 2): 50.97%
- Population Pyknosed Nuclei (%) (1 µM, 0 h, replicate 2): 28.39%
- Population apoptotic cell (%) (1 µM, 0 h, replicate 2): 29.55%
- Population cell that influence microtubule strucutre (%) (1 µM, 0 h, replicate 2): 43.04%
- Population with increased mitochondrial mass (%) (1 µM, 0 h, replicate 2): 7.59%
- Population with membrane disruption (%) (1 µM, 0 h, replicate 2): 5.06%
- Cell count normalized to cells treated with DMSO control (1 µM, 12 h, replicate 1): 1.109
- Cell count per well (1 µM, 12 h, replicate 1): 167
- Population Fragmented Nuclei (%) (1 µM, 12 h, replicate 1): 8.64%
- Population Healthy Nuclei (%) (1 µM, 12 h, replicate 1): 75.31%
- Population Pyknosed Nuclei (%) (1 µM, 12 h, replicate 1): 16.05%
- Population apoptotic cell (%) (1 µM, 12 h, replicate 1): 34.62%
- Population cell that influence microtubule strucutre (%) (1 µM, 12 h, replicate 1): 20.49%
- Population with increased mitochondrial mass (%) (1 µM, 12 h, replicate 1): 3.28%
- Population with membrane disruption (%) (1 µM, 12 h, replicate 1): 0.82%
- Cell count normalized to cells treated with DMSO control (1 µM, 12 h, replicate 2): 0.8825
- Cell count per well (1 µM, 12 h, replicate 2): 147
- Population Fragmented Nuclei (%) (1 µM, 12 h, replicate 2): 22.70%
- Population Healthy Nuclei (%) (1 µM, 12 h, replicate 2): 46.81%
- Population Pyknosed Nuclei (%) (1 µM, 12 h, replicate 2): 30.50%
- Population apoptotic cell (%) (1 µM, 12 h, replicate 2): 34.88%
- Population cell that influence microtubule strucutre (%) (1 µM, 12 h, replicate 2): 56.06%
- Population with increased mitochondrial mass (%) (1 µM, 12 h, replicate 2): 10.61%
- Population with membrane disruption (%) (1 µM, 12 h, replicate 2): 4.55%
- Cell count normalized to cells treated with DMSO control (1 µM, 24 h, replicate 1): 1.1208
- Cell count per well (1 µM, 24 h, replicate 1): 169
- Population Fragmented Nuclei (%) (1 µM, 24 h, replicate 1): 16.36%
- Population Healthy Nuclei (%) (1 µM, 24 h, replicate 1): 70.30%
- Population Pyknosed Nuclei (%) (1 µM, 24 h, replicate 1): 13.33%
- Population apoptotic cell (%) (1 µM, 24 h, replicate 1): 45.45%
- Population cell that influence microtubule strucutre (%) (1 µM, 24 h, replicate 1): 18.10%
- Population with increased mitochondrial mass (%) (1 µM, 24 h, replicate 1): 3.45%
- Population with membrane disruption (%) (1 µM, 24 h, replicate 1): 1.72%
- Cell count normalized to cells treated with DMSO control (1 µM, 24 h, replicate 2): 0.8977
- Cell count per well (1 µM, 24 h, replicate 2): 148
- Population Fragmented Nuclei (%) (1 µM, 24 h, replicate 2): 25.34%
- Population Healthy Nuclei (%) (1 µM, 24 h, replicate 2): 47.26%
- Population Pyknosed Nuclei (%) (1 µM, 24 h, replicate 2): 27.40%
- Population apoptotic cell (%) (1 µM, 24 h, replicate 2): 50.00%
- Population cell that influence microtubule strucutre (%) (1 µM, 24 h, replicate 2): 57.97%
- Population with increased mitochondrial mass (%) (1 µM, 24 h, replicate 2): 11.59%
- Population with membrane disruption (%) (1 µM, 24 h, replicate 2): 5.80%
- Cell count normalized to cells treated with DMSO control (1 µM, 48 h, replicate 1): 1.035
- Cell count per well (1 µM, 48 h, replicate 1): 157
- Population Fragmented Nuclei (%) (1 µM, 48 h, replicate 1): 12.50%
- Population Healthy Nuclei (%) (1 µM, 48 h, replicate 1): 75.00%
- Population Pyknosed Nuclei (%) (1 µM, 48 h, replicate 1): 12.50%
- Population apoptotic cell (%) (1 µM, 48 h, replicate 1): 68.42%
- Population cell that influence microtubule strucutre (%) (1 µM, 48 h, replicate 1): 16.67%
- Population with increased mitochondrial mass (%) (1 µM, 48 h, replicate 1): 3.51%
- Population with membrane disruption (%) (1 µM, 48 h, replicate 1): 0.88%
- Cell count normalized to cells treated with DMSO control (1 µM, 48 h, replicate 2): 0.8596
- Cell count per well (1 µM, 48 h, replicate 2): 140
- Population Fragmented Nuclei (%) (1 µM, 48 h, replicate 2): 27.61%
- Population Healthy Nuclei (%) (1 µM, 48 h, replicate 2): 55.22%
- Population Pyknosed Nuclei (%) (1 µM, 48 h, replicate 2): 17.16%
- Population apoptotic cell (%) (1 µM, 48 h, replicate 2): 39.13%
- Population cell that influence microtubule strucutre (%) (1 µM, 48 h, replicate 2): 47.30%
- Population with increased mitochondrial mass (%) (1 µM, 48 h, replicate 2): 9.46%
- Population with membrane disruption (%) (1 µM, 48 h, replicate 2): 2.70%
- cytotoxicity (1 μM, MRC-9): no cytotoxicity
- Cell count normalized to cells treated with DMSO control (10 µM, 0 h, replicate 1): 0.9342
- Cell count per well (10 µM, 0 h, replicate 1): 140
- Population Fragmented Nuclei (%) (10 µM, 0 h, replicate 1): 19.23%
- Population Healthy Nuclei (%) (10 µM, 0 h, replicate 1): 57.69%
- Population Pyknosed Nuclei (%) (10 µM, 0 h, replicate 1): 23.08%
- Population apoptotic cell (%) (10 µM, 0 h, replicate 1): 33.33%
- Population cell that influence microtubule strucutre (%) (10 µM, 0 h, replicate 1): 24.00%
- Population with increased mitochondrial mass (%) (10 µM, 0 h, replicate 1): 6.67%
- Population with membrane disruption (%) (10 µM, 0 h, replicate 1): 1.33%
- Cell count normalized to cells treated with DMSO control (10 µM, 0 h, replicate 2): 0.8634
- Cell count per well (10 µM, 0 h, replicate 2): 154
- Population Fragmented Nuclei (%) (10 µM, 0 h, replicate 2): 23.88%
- Population Healthy Nuclei (%) (10 µM, 0 h, replicate 2): 43.28%
- Population Pyknosed Nuclei (%) (10 µM, 0 h, replicate 2): 32.84%
- Population apoptotic cell (%) (10 µM, 0 h, replicate 2): 40.91%
- Population cell that influence microtubule strucutre (%) (10 µM, 0 h, replicate 2): 39.66%
- Population with increased mitochondrial mass (%) (10 µM, 0 h, replicate 2): 15.52%
- Population with membrane disruption (%) (10 µM, 0 h, replicate 2): 8.62%
- Cell count normalized to cells treated with DMSO control (10 µM, 12 h, replicate 1): 0.8966
- Cell count per well (10 µM, 12 h, replicate 1): 135
- Population Fragmented Nuclei (%) (10 µM, 12 h, replicate 1): 18.46%
- Population Healthy Nuclei (%) (10 µM, 12 h, replicate 1): 53.08%
- Population Pyknosed Nuclei (%) (10 µM, 12 h, replicate 1): 28.46%
- Population apoptotic cell (%) (10 µM, 12 h, replicate 1): 67.57%
- Population cell that influence microtubule strucutre (%) (10 µM, 12 h, replicate 1): 69.57%
- Population with increased mitochondrial mass (%) (10 µM, 12 h, replicate 1): 15.94%
- Population with membrane disruption (%) (10 µM, 12 h, replicate 1): 1.45%
- Cell count normalized to cells treated with DMSO control (10 µM, 12 h, replicate 2): 0.8165
- Cell count per well (10 µM, 12 h, replicate 2): 136
- Population Fragmented Nuclei (%) (10 µM, 12 h, replicate 2): 28.57%
- Population Healthy Nuclei (%) (10 µM, 12 h, replicate 2): 55.46%
- Population Pyknosed Nuclei (%) (10 µM, 12 h, replicate 2): 15.97%
- Population apoptotic cell (%) (10 µM, 12 h, replicate 2): 47.37%
- Population cell that influence microtubule strucutre (%) (10 µM, 12 h, replicate 2): 83.33%
- Population with increased mitochondrial mass (%) (10 µM, 12 h, replicate 2): 30.30%
- Population with membrane disruption (%) (10 µM, 12 h, replicate 2): 7.58%
- Cell count normalized to cells treated with DMSO control (10 µM, 24 h, replicate 1): 0.8754
- Cell count per well (10 µM, 24 h, replicate 1): 132
- Population Fragmented Nuclei (%) (10 µM, 24 h, replicate 1): 17.21%
- Population Healthy Nuclei (%) (10 µM, 24 h, replicate 1): 55.74%
- Population Pyknosed Nuclei (%) (10 µM, 24 h, replicate 1): 27.05%
- Population apoptotic cell (%) (10 µM, 24 h, replicate 1): 60.61%
- Population cell that influence microtubule strucutre (%) (10 µM, 24 h, replicate 1): 72.06%
- Population with increased mitochondrial mass (%) (10 µM, 24 h, replicate 1): 17.65%
- Population with membrane disruption (%) (10 µM, 24 h, replicate 1): 1.47%
- Cell count normalized to cells treated with DMSO control (10 µM, 24 h, replicate 2): 0.8068
- Cell count per well (10 µM, 24 h, replicate 2): 133
- Population Fragmented Nuclei (%) (10 µM, 24 h, replicate 2): 30.89%
- Population Healthy Nuclei (%) (10 µM, 24 h, replicate 2): 56.10%
- Population Pyknosed Nuclei (%) (10 µM, 24 h, replicate 2): 13.01%
- Population apoptotic cell (%) (10 µM, 24 h, replicate 2): 56.25%
- Population cell that influence microtubule strucutre (%) (10 µM, 24 h, replicate 2): 65.22%
- Population with increased mitochondrial mass (%) (10 µM, 24 h, replicate 2): 20.29%
- Population with membrane disruption (%) (10 µM, 24 h, replicate 2): 5.80%
- Cell count normalized to cells treated with DMSO control (10 µM, 48 h, replicate 1): 0.8898
- Cell count per well (10 µM, 48 h, replicate 1): 135
- Population Fragmented Nuclei (%) (10 µM, 48 h, replicate 1): 23.81%
- Population Healthy Nuclei (%) (10 µM, 48 h, replicate 1): 54.76%
- Population Pyknosed Nuclei (%) (10 µM, 48 h, replicate 1): 21.43%
- Population apoptotic cell (%) (10 µM, 48 h, replicate 1): 85.19%
- Population cell that influence microtubule strucutre (%) (10 µM, 48 h, replicate 1): 56.52%
- Population with increased mitochondrial mass (%) (10 µM, 48 h, replicate 1): 14.49%
- Population with membrane disruption (%) (10 µM, 48 h, replicate 1): 0.00%
- Cell count normalized to cells treated with DMSO control (10 µM, 48 h, replicate 2): 0.8904
- Cell count per well (10 µM, 48 h, replicate 2): 145
- Population Fragmented Nuclei (%) (10 µM, 48 h, replicate 2): 38.30%
- Population Healthy Nuclei (%) (10 µM, 48 h, replicate 2): 58.16%
- Population Pyknosed Nuclei (%) (10 µM, 48 h, replicate 2): 3.55%
- Population apoptotic cell (%) (10 µM, 48 h, replicate 2): 60.00%
- Population cell that influence microtubule strucutre (%) (10 µM, 48 h, replicate 2): 71.95%
- Population with increased mitochondrial mass (%) (10 µM, 48 h, replicate 2): 18.29%
- Population with membrane disruption (%) (10 µM, 48 h, replicate 2): 3.66%

— paper PMC12090182, “Repurposing of the RIPK1-Selective Benzo[1,4]oxazepin-4-one Scaffold for the Development of a Type III LIMK1/2 Inhibitor” (ACS Chemical Biology, 2025)
